Two compounds from ChEMBL document CHEMBL1137576, “Interactions of hepatitis B core antigen and peptide inhibitors” (J Med Chem, 2007) can be followed below.

In test [1] the target is Core antigen (Hepatitis B virus) (UniProt Q03732). In words: (§1) Binding affinity to HBcAg.
For the next test, the target named is Core antigen (Hepatitis B virus, UniProt Q03732). The test is described as §1.

SMILES strings stand for the structures. pKd: −log10 of the molar value. Where a SMILES comes first, the peptide text is derived from it.

Core antigen (Hepatitis B virus), sequence (Q03732 as listed by the source): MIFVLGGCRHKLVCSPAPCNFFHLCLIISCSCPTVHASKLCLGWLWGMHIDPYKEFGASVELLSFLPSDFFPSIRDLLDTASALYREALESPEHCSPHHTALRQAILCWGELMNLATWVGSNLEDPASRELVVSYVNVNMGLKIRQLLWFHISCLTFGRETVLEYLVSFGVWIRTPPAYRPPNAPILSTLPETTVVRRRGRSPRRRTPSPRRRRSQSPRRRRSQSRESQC
Core antigen, sequence (Q03732 whole entry): as the sequence (Q03732 as listed by the source) above

Turning to `CSCC[C@H](NC(=O)[C@H](CCCNC(=N)N)NC(=O)CNC(=O)[C@H](CC(C)C)NC(=O)[C@H](CC(C)C)NC(=O)[C@H](CO)NC(=O)[C@H](CCCNC(=N)N)NC(=O)[C@H](Cc1cnc[nH]1)NC(=O)[C@@H](N)CCSC)C(=O)N[C@@H](CCCCN)C(=O)NCC(=O)N[C@@H](C)C(=O)O`, in test [1], the Ka was 1.26 10^4/M. For the same compound, at Core antigen, the pKd is 4.10.

Consider `CC[C@H](C)[C@H](NC(=O)[C@H](CC(N)=O)NC(=O)[C@H](CO)NC(=O)[C@H](Cc1ccccc1)NC(=O)[C@H](Cc1ccccc1)NC(=O)[C@H](CO)NC(=O)[C@@H](N)Cc1c[nH]c2ccccc12)C(=O)O` (H-WSFFSNI-OH), for which, in test [1], the Ka was 5.4 10^4/M. This compound also had a pKd at Core antigen of 4.73.

By pKd is commonly meant the Kd on a negative log10 scale, so that one unit is a factor of ten. Low readings indicate a large Kd, high ones a small Kd.
